Measured values as given in US20160058754A1, “Nalmefene for Treatment of Patients with Anxiety Disorder” (H. LUNDBECK A/S, priority 2013, published 2016).

Experiments:
[1] = tested on: patients with alcohol dependence; assay: Clinical efficacy measured by POMS score (Studies 12014A, 12023A, 12013A); type: in vivo, human
Excerpt: The term “POMS” is an abbreviation of “profile of mood states” and refers to a self-report inventory scale developed to assess the effect of e.g. new medication on mood states and mood changes. The scale measures six domains: Tension-Anxiety, Depression-Rejection, Anger-Hostility, Vigour-Activity, Fatigue-Inertia, and Confusion-Bewilderment. A total mood disturbance (TMD) score can be calculated. In general, a lower POMS score indicates a better mood state than a higher score except for vigour-activity, for which a higher POMS score indicates a better mood state. The scale has been described e.g. by McNair et al., Profile of mood states. San Diego, Calif.: Educational and Industrial Testing Service and by Nyenhios and Yamamoto, J. Clin. Psychology, (1999), Vol. 55(1): 79-86.
Assessment of POMs scores in Studies 12014A, 12023A and 12013A was used to evaluate the effect of nalmefene on mood states and mood changes throughout the study. […] Tables 5 and 7 indicate that patients with an anxiety disorder at baseline had higher POMS scores at baseline when compared to those patients without anxiety disorders. The change in POMS scores from baseline are illustrated in FIGS. 3-9. […] A remarkable improvement is seen over the weeks 8-20.
(§1) Another approach to identify patients with an anxiety disorder is by defining Anxiety Disorder at baseline as any ongoing medical history coded by the Medical Dictionary for Regulatory Activities (MedDRA) Preferred Term as ‘Acute Stress Disorder’, ‘Agoraphobia’, ‘Anxiety’, ‘Anxiety Disorder’, ‘Emotional Distress’, ‘Generalised Anxiety Disorder’, ‘Nervousness’, ‘Nosophobia’, ‘Obsessive-Compulsive Disorder’, ‘Panic Attack’, ‘Panic Disorder’, ‘Panic Disorder With Agoraphobia’, ‘Post-Traumatic Stress Disorder’, ‘Social Phobia’ and/or ‘Stress and Tension’. In examples 1 and 2 below patients classified with an anxiety disorder at baseline were selected based on said MedDRA terms.
Assessment of POMs scores in Studies 12014A, 12023A and 12013A was used to evaluate the effect of nalmefene on mood states and mood changes throughout the study. […]

[2] = tested on: patients with alcohol dependence; assay: Clinical efficacy on the reduction of alcohol consumption (Studies 12014A, 12023A, 12013A); type: in vivo, human
Protocol: The efficacy of nalmefene in the reduction of alcohol consumption in patients with alcohol dependence (DSM-IV) has been evaluated in studies 12014A, 12023A and 12013A. The efficacy of nalmefene was measured using two co-primary endpoints: the change from baseline in the monthly number of heavy drinking days (HDDs) and the change from baseline in the average daily total alcohol consumption (TAC).
as §1
The efficacy of nalmefene on the reduction of alcohol consumption in patients with alcohol dependence (DSM-IV) was evaluated in two efficacy studies (Study 12014A and Study 12023A) and a safety study (Study 12013A). All studies were multi-national, multi-site, randomised, double blind, two parallel group, placebo controlled studies. The efficacy was evaluated over 24 weeks of treatment. The studies included outpatients, aged ≧18 years, with a primary diagnosis of alcohol dependence. […] Patients with psychiatric co-morbidity (that is, patients who used stable doses of antipsychotics and/or certain antidepressants) were also included unless the treatment of the psychiatric comorbidity had to take priority over treatment of the drinking problem, or was likely to interfere with study treatment or impairs treatment compliance.
The studies included in total 1997 patients, 1173 of whom were treated with nalmefene 18 mg in an as-needed dosing regimen. A motivational and adherence enhancing intervention was administered to all the patients to support the patients in changing their behavior and to enhance adherence to treatment.
The efficacy of nalmefene on the reduction of alcohol consumption was measured using two co-primary endpoints: the change in the monthly number of heavy drinking days (HDDs) and the change in the average daily total alcohol consumption (TAC). A HDD was defined as a day with a consumption ≧60 g alcohol for men and ≧40 g for women.

[3] = tested on: patients with alcohol dependence; assay: Clinical efficacy measured by SF-36 Mental Component Summary (FAS, OC); type: in vivo, human; settings: for SF-36 Mental Component Summary, Change to Week 12, Mean ± SE / SF-36 Mental Component Summary, Change to Week 24, Mean ± SE: pooled studies, FAS, OC
Excerpt: Another method for measuring a patient's health status is by the SF-36 which is a patient-reported outcome developed as a general measure of perceived health status. The mental component summary score focuses on mental aspects of health related quality of life. Higher scores correspond to better health status or well-being.

[4] = tested on: rats; assay: Vogel test in rats; type: in vivo, rat; settings: 0.01, 0.1 and 1 mg/kg s.c. 30 minutes before the test; 3-minute test; vs vehicle
Excerpt: Pairing of water drinking with […] shock punishment will induce a conflict in water deprived rats and lead to less frequent water seeking behaviour. Pretreatment of rats with an anxiolytic will counteract the conflict and increase the frequency of water seeking. The test can be conducted as described in detail by Vogel et al., Psychopharmacology, (1971), 21: pp. 1-7. In brief, rats are adapted to the test chambers, a Plexiglas box, equipped with a grid floor made of stainless steel bars and a drinking bottle with tap water. After the adaptation period, the animals are deprived of water and then placed in the test chamber for free access to the drinking bottle for a short period. Afterwards, they are allowed a short free-drinking session in their home cage. After another water deprivation period, the rats are placed again in the test chamber and allowed to drink for a very short time (30 s); immediately afterwards, their drinking attempts are punished with an electric shock. […] The number of shocks accepted throughout a 5-min experimental session was recorded.
Nalmefene was tested as the sole active compound in the Vogel model in rats. […] The number of punished drinks was counted during a 3-minute test. Nalmefene was evaluated at 3 doses (0.01, 0.1 and 1 mg/kg), administered s.c. 30 minutes before the test, and compared with a vehicle control group.

[5] = biological target: δ receptor (Homo sapiens, UniProt P41143); settings: in vitro studies; cited from earlier work
[6] = biological target: κ receptor (Homo sapiens, UniProt P41145); settings: in vitro studies; cited from earlier work
[7] = biological target: μ receptor (Homo sapiens, UniProt P35372); settings: in vitro studies; cited from earlier work
[8] = tested on: rats; assay: Elevated plus maze test in rats; type: in vivo, rat; settings: 0.01, 0.1 and 1 mg/kg s.c. 30 minutes before the test; 5 minutes; vs vehicle
Excerpt: Rats have an aversion of open spaces and avoid them by confining movements to enclosed spaces or to the edges of a bounded space. Anxiolytic activity can be tested in a test setting consists of a plus-shaped apparatus with two open and two enclosed arms, each with an open roof, elevated 40-70 cm from the floor according to Pellow et al., J. Neurosci. Methods. (1985) August; 14(3):149-67. Pretreatment of rats with anxiolytic active compounds will increase in the proportion of time spent in the open arms (time in open arms/total time in open or closed arms), and an increase in the proportion of entries into the open arms (entries into open arms/total entries into open or closed arms). Total number of arm entries and number of closed-arm entries can be employed as measures of general activity.
Nalmefene was tested as the sole active compound in the elevated plus maze test in rats. A rat was placed in the centre of the plus-maze and left to explore for 5 minutes. The number of entries into the open and closed arms and the time spent on the open arms were recorded. The % of open arm entries (open arm entries/total arm entries×100) was calculated. Nalmefene was evaluated at 3 doses (0.01, 0.1 and 1 mg/kg), administered s.c. 30 minutes before the test, and compared with a vehicle control group.

[9] = tested on: Mice (NMRI); assay: Marble burying test in mouse; type: in vivo; settings: 0.01 or 1 mg/kg s.c.
Protocol: The method, which detects anxiolytic/tranquillizing activity, follows that described by Broekkamp et al (Eur. J. Pharmacol., 126, 223-229, 1986). Mice exposed to novel objects (marbles) will bury them in the sawdust floor covering. Anxiolytics decrease the number of marbles buried at non-sedative doses.
Nalmefene was tested in the marble burying model as the sole active compound. Mice (NMRI) were individually placed in transparent plastic cages (33×21×18 cm) with 5 cm of sawdust on the floor and 25 marbles grouped in the centre of the cage. The cage was covered with an inverted plastic cage. Each test cage, together with the marbles, was impregnated with mouse odor before-hand by leaving 10 mice in the cage for 15 minutes. These mice then played no further role in the experiment.
The number of marbles covered by sawdust (⅔ or more) was counted at the end of a 30 minute test. 12 mice were studied per group. The test was performed blind. Nalmefene was evaluated at 3 doses (0.01, 0.1 and 1 mg/kg), administered s.c. 30 minutes before the test, and compared with a vehicle control group. […]
Data with the test substance were analysed by comparing treated groups with vehicle control using Kruskall-Wallis test followed by Mann-Whitney U tests. Data with the reference substance were analysed using Mann-Whitney U tests. […]

[10] = total patient group, nalmefene 18 mg as-needed vs placebo
[11] = no anxiety disorder at baseline

δ receptor, sequence (P41143 whole entry): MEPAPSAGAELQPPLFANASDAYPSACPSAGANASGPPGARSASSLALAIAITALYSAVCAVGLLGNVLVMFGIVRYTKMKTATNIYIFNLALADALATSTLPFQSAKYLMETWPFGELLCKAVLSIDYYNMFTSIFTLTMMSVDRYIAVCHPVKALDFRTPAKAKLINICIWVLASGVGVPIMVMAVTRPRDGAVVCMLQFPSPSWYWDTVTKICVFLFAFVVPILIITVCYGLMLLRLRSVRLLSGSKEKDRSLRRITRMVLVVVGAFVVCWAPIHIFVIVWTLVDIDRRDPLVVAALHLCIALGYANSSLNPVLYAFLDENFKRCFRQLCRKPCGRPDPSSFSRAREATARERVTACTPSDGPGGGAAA
κ receptor, sequence (P41145 whole entry): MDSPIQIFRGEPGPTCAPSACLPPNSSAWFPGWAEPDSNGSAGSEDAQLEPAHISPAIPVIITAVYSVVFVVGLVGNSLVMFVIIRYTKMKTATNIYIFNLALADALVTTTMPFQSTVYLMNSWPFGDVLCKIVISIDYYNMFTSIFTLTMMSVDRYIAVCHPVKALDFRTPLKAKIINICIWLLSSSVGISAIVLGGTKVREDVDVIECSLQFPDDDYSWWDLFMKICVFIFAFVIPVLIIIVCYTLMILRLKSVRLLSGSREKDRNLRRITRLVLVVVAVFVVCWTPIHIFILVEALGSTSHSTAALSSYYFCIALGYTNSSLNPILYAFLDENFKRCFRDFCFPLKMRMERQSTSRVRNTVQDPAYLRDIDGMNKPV
μ receptor, sequence (P35372 whole entry): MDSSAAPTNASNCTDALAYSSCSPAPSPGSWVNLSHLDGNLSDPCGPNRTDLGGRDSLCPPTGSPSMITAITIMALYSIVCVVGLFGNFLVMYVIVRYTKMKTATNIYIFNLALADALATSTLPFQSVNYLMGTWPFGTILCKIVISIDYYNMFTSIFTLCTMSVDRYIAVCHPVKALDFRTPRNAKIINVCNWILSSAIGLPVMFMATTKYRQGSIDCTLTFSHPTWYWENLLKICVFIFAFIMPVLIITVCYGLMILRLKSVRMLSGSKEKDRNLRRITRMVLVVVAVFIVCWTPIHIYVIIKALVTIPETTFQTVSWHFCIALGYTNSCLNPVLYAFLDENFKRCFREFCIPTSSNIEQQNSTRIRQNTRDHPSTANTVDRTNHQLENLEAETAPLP

C=C1CC[C@@]2(O)[C@H]3Cc4ccc(O)c5c4[C@@]2(CCN3CC2CC2)[C@H]1O5 [Nalmefene, 17-(cyclopropylmethyl)-4,5-alpha-epoxy-6-methylenemorphinan-3,14-diol]
POMS score, nalmefene vs placebo ([1]; patients with an anxiety disorder at baseline, end of the study): better POMS score
POMS total mood disturbance, tension-anxiety, depression-rejection, anger-hostility and confusion, nalmefene vs placebo ([1]; patients with an anxiety disorder at baseline, weeks 4-24): better POMS scores
POMS score, nalmefene vs placebo ([1]; patients without an anxiety disorder at baseline, throughout the study): no pronounced difference between nalmefene and placebo
alcohol consumption ([2]; patients with an anxiety disorder at baseline): significally reduced
reducing TAC (change from baseline in average daily total alcohol consumption) [2, 10]: superior to placebo
reducing the number of HDDs (change from baseline in monthly number of heavy drinking days) [2, 10]: superior to placebo
difference between nalmefene and placebo measured in HDDs and TAC ([2]; week 24, patients with an anxiety disorder at baseline compared with patients without): merely at the same level
difference between nalmefene and placebo in the change from baseline in SF-36 mental component summary score ([3]; Week 12 and Week 24, patients with an anxiety disorder at baseline compared with patients without): more pronounced
SF-36 Mental Component Summary, Change to Week 12, Mean ± SE ([3]; anxiety disorder at baseline): 6.23 ± 1.47
SF-36 Mental Component Summary, Change to Week 24, Mean ± SE ([3]; anxiety disorder at baseline): 7.56 ± 2.24
SF-36 Mental Component Summary, Change to Week 12, Mean ± SE [3, 11]: 4.77 ± 0.37
SF-36 Mental Component Summary, Change to Week 24, Mean ± SE [3, 11]: 5.65 ± 0.43
number of punished drinks [4]: No significant effect
activity at the δ receptor [5]: antagonist activity
activity at the κ receptor [6]: partial agonist activity
activity at the μ receptor [7]: antagonist activity
open and closed arm entries, time spent on the open arms, % of open arm entries [8]: No significant effect
effect on number of marbles covered by sawdust compared with vehicle controls [9]: no significant effects
